Among the test systems are HOP-62 NSCLC; DU-145 prostate; HCC-2998 colon; HT29 colon; HS 578T breast; NCI-H460 lung; SK-OV-3 ovarian; SF-539 CNS; ACHN renal; SNB-19 CNS; HCT-116 colon; 786-0 renal; NCI-H226 lung; UACC-62 melanoma; NCI/ADR-RES ovarian; A549 NSCLC; M14 melanoma; UO-31 renal; SR leukemia.
Assay in all cases: NCI tumour cell line growth inhibition, 48 h

These results are taken from PubChem BioAssay (NCI).

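Five concentrations, 48 hours, 96-well plates. TGI is the concentration that stops growth completely.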

For the molecule `C[C@H]1ON2CCC[C@@H]2[C@@H]1C(=O)N1C2CC3CCC2(CS1(=O)=O)C3(C)C` (stereo partly drawn), the TGI with HOP-62 NSCLC, in the assay on DU-145 prostate, in the assay on HCC-2998 colon, with HT29 colon, in the assay on HS 578T breast and in the assay on NCI-H460 lung was more than 100 µM in each case. In addition, the TGI in the assay with SK-OV-3 ovarian, in the assay with SF-539 CNS, in the assay on ACHN renal, with SNB-19 CNS, in the assay with HCT-116 colon and in the assay on 786-0 renal was more than 100 µM in each case. The TGI in the assay with NCI-H226 lung, in the assay on UACC-62 melanoma, in the assay with NCI/ADR-RES ovarian, in the assay with A549 NSCLC and in the assay on M14 melanoma was more than 100 µM in each case.
With `COc1cccc2c(=O)c3c(O)c4cc(N(C)C)ccc4c(OC(C)=O)c3oc12`, the TGI in the assay on HOP-62 NSCLC was 41.5 µM; with DU-145 prostate it was 37.5 µM; with HCC-2998 colon, 32.5 µM; in the assay on HT29 colon, 27.1 µM; in the assay on HS 578T breast it was 69.5 µM; in the assay with NCI-H460 lung, 50.2 µM. Further, the TGI is more than 100 µM in the assay on SK-OV-3 ovarian; 40.4 µM with SF-539 CNS; 32.8 µM in the assay on ACHN renal; 91.6 µM in the assay on SNB-19 CNS; 26.8 µM in the assay on HCT-116 colon; 24 µM in the assay with 786-0 renal. Also, the TGI is 75.3 µM in the assay on NCI-H226 lung; 28 µM in the assay on UACC-62 melanoma; 36.4 µM in the assay on UO-31 renal; 60.5 µM in the assay with NCI/ADR-RES ovarian; more than 100 µM with A549 NSCLC; 29.9 µM in the assay with M14 melanoma.
For the molecule `C/C(O)=C/c1nc2sc(C)c(C)c2c(=O)s1`, the TGI with HOP-62 NSCLC was more than 100 µM; in the assay on DU-145 prostate it was more than 100 µM; with HT29 colon it was more than 100 µM; in the assay with HS 578T breast, 74 µM; with SK-OV-3 ovarian it was more than 100 µM; in the assay with SF-539 CNS it was more than 100 µM. In addition, the TGI with ACHN renal, in the assay with SNB-19 CNS, in the assay on HCT-116 colon, in the assay with 786-0 renal, with NCI-H226 lung and with UACC-62 melanoma was more than 100 µM throughout. Besides, the TGI in the assay on UO-31 renal, in the assay with NCI/ADR-RES ovarian, in the assay with A549 NSCLC and with M14 melanoma was more than 100 µM in each case.
Consider `c1ccc2c(-c3ccnc(-c4c[nH]c5ccccc45)n3)c[nH]c2c1`, for which the TGI with HOP-62 NSCLC was 28.7 µM; with DU-145 prostate, 44.5 µM; in the assay on HT29 colon, 7.33 µM; in the assay on HS 578T breast, more than 100 µM; in the assay with NCI-H460 lung, more than 100 µM; in the assay on SK-OV-3 ovarian it was more than 100 µM. Also, the TGI with SF-539 CNS was more than 100 µM; in the assay on SR leukemia, 19.4 µM; in the assay with ACHN renal, more than 100 µM; in the assay on SNB-19 CNS, more than 100 µM; with HCT-116 colon, 15.4 µM; in the assay on 786-0 renal, 4.6 µM. The TGI in the assay with UO-31 renal, in the assay with NCI/ADR-RES ovarian and in the assay on A549 NSCLC was more than 100 µM each time.
Turning to `CCC/C(Cl)=N/OC(=O)Nc1cccc(F)c1`, the TGI in the assay on HOP-62 NSCLC was 29.9 µM; with DU-145 prostate, 31.6 µM; in the assay on HCC-2998 colon it was 30.4 µM; with HT29 colon, 9.35 µM; with HS 578T breast, more than 63.1 µM; in the assay with NCI-H460 lung it was 39 µM. The TGI worked out at 31 µM with SK-OV-3 ovarian; 2.88 µM in the assay with ACHN renal; 32.3 µM with SNB-19 CNS; 18.6 µM in the assay on HCT-116 colon; 3.2 µM in the assay on 786-0 renal; 27.9 µM in the assay with NCI-H226 lung. Further, the TGI is 32.6 µM with UACC-62 melanoma; 23.3 µM with UO-31 renal; more than 21.1 µM in the assay on NCI/ADR-RES ovarian; 41.6 µM in the assay on A549 NSCLC; 14.7 µM in the assay on M14 melanoma.
As for `O=c1[nH]nc(Cc2ccc(Cl)cc2)n1Nc1ccccc1`, the TGI with HOP-62 NSCLC is more than 100 µM; in the assay on DU-145 prostate it was 27.8 µM; in the assay on HCC-2998 colon, more than 100 µM; with HT29 colon, more than 100 µM; in the assay on HS 578T breast, more than 100 µM; in the assay with NCI-H460 lung, more than 100 µM. The TGI with SF-539 CNS, in the assay on ACHN renal, with SNB-19 CNS, in the assay on HCT-116 colon, with 786-0 renal and in the assay on NCI-H226 lung was more than 100 µM in each case. The TGI in the assay with UACC-62 melanoma, with UO-31 renal, in the assay with NCI/ADR-RES ovarian, in the assay with A549 NSCLC and in the assay on M14 melanoma was more than 100 µM in each case.
With `CC1(C)O[C@@H]([C@@H](O)[C@H](O)C2SCCCS2)[C@@H](CO)O1`, the TGI in the assay with HOP-62 NSCLC, in the assay on DU-145 prostate, in the assay with HT29 colon, in the assay on HS 578T breast, in the assay with NCI-H460 lung and with SK-OV-3 ovarian was more than 100 µM throughout. Further, the TGI in the assay on ACHN renal, in the assay on SNB-19 CNS, in the assay with HCT-116 colon, with 786-0 renal, in the assay on NCI-H226 lung and in the assay with UACC-62 melanoma was more than 100 µM throughout. For the same molecule, the TGI in the assay with UO-31 renal, in the assay on NCI/ADR-RES ovarian, in the assay with A549 NSCLC and in the assay with M14 melanoma was more than 100 µM throughout.
With `CCOC(=O)CC(=O)Nc1c(C(=O)OCC)sc2nc(SC)nc(Nc3ccc(OC)c(OC)c3)c12`, the TGI with DU-145 prostate was more than 100 µM; in the assay with HCC-2998 colon, more than 100 µM; in the assay on HT29 colon, more than 100 µM; in the assay with HS 578T breast, more than 100 µM; in the assay with SF-539 CNS, 69.2 µM; in the assay with ACHN renal it was more than 100 µM. Further, the TGI is more than 100 µM with HCT-116 colon; 37 µM in the assay with 786-0 renal; more than 100 µM in the assay with NCI-H226 lung; more than 100 µM in the assay with UACC-62 melanoma; more than 100 µM in the assay with UO-31 renal; more than 100 µM in the assay on NCI/ADR-RES ovarian. Further, the TGI in the assay with A549 NSCLC and in the assay on M14 melanoma was more than 100 µM throughout.
In the case of `COc1ccc2c(c1)CC[C@@H]1C2CC[C@]2(C)C(=O)N(C)C(=O)CC12` (stereo partly drawn), the TGI in the assay with HOP-62 NSCLC, in the assay on DU-145 prostate, with HCC-2998 colon, in the assay with HT29 colon, in the assay with HS 578T breast and in the assay with NCI-H460 lung was more than 100 µM in each case. For the same molecule, the TGI in the assay with SK-OV-3 ovarian, in the assay on SF-539 CNS, in the assay on SR leukemia, with ACHN renal, in the assay with SNB-19 CNS and with HCT-116 colon was more than 100 µM throughout. The TGI with 786-0 renal, in the assay on NCI-H226 lung, in the assay with UACC-62 melanoma, in the assay with UO-31 renal, with A549 NSCLC and in the assay with M14 melanoma was more than 100 µM throughout.
